Laboratory results: ChEMBL document CHEMBL3885861, “Open TG-GATES”

Species: Rattus norvegicus
Assay: Open TG-GATES - Regimen: Daily Repeat
Type: toxicity, organism-based, Sprague-Dawley
Set-up: regimen Daily Repeat, gender Male, age 6 weeks
Conditions: in vivo, po, route gavage; for TG / TP / gamma-GTP / ALT / AST / CRE / Ca / Cl / DBIL / GLC / IP / K / LDH / RALB / TBIL / ALP / TC: tissue Plasma; for KIDNEY_L / KIDNEY_R / KIDNEY_TOTAL: tissue Kidney
[1] = 30 mg/kg, […], dose level Middle, time 28 day
[2] = 100 mg/kg, 72 h, dose level High, time 3 day
[3] = 100 mg/kg, 72 h, tissue Blood, dose level High, time 3 day
[4] = 100 mg/kg, […], dose level High, time 7 day
[5] = 100 mg/kg, […], dose level High, time 14 day
[6] = 100 mg/kg, […], dose level High, time 28 day
[7] = 100 mg/kg, […], tissue Blood, dose level High, time 7 day
[8] = 100 mg/kg, […], tissue Blood, dose level High, time 14 day
[9] = 100 mg/kg, […], tissue Blood, dose level High, time 28 day

Q: With `Cn1c(=O)c2c(ncn2C)n(C)c1=O` [CAFFEINE] as the molecule, how does the TG [1] read?
A: 88.6 mg/dL

Q: What about the TP [1] of the same molecule?
A: 6.1 g/dL

Q: What about the gamma-GTP [1] of the same molecule?
A: 2 IU/L

Q: What about the TERMINAL_BW [2] of the same molecule?
A: 205.8 g

Q: What about the APTT [3] of the same molecule?
A: 22.4 s

Q: And the Bas [3]?
A: 0%

Q: What about the Eos [3] of the same molecule?
A: 1%

Q: What about the Fbg [3] of the same molecule?
A: 319.6 mg/dL

Q: And the Lym [3]?
A: 74.4%

Q: And the MCHC [3]?
A: 33.8%

Q: What about the MCV [3] of the same molecule?
A: 60.6 fL

Q: And the Mono [3]?
A: 1.6%

Q: And the Neu [3]?
A: 22.4%

Q: And the PT [3]?
A: 15.8 s

Q: What about the Plat [3] of the same molecule?
A: 126.2 x10_4/uL

Q: What about the RBC [3] of the same molecule?
A: 686 x10_4/ul

Q: What about the Ret [3] of the same molecule?
A: 4.3%

Q: And the WBC [3]?
A: 81.5 x10_2/uL

Q: What about the KIDNEY_L [2] of the same molecule?
A: 0.9 g

Q: And the KIDNEY_R [2]?
A: 0.9 g

Q: And the KIDNEY_TOTAL [2]?
A: 1.8 g

Q: What about the ALT [2] of the same molecule?
A: 38 IU/L

Q: What about the AST [2] of the same molecule?
A: 70.2 IU/L

Q: And the CRE [2]?
A: 0.2 mg/dL

Q: And the Ca [2]?
A: 10.8 mg/dL

Q: And the Cl [2]?
A: 108.6 meq/L

Q: And the DBIL [2]?
A: 0 mg/dL

Q: And the GLC [2]?
A: 169.6 mg/dL

Q: And the IP [2]?
A: 8.9 mg/dL

Q: What about the K [2] of the same molecule?
A: 4.4 meq/L

Q: What about the LDH [2] of the same molecule?
A: 159.6 IU/L

Q: And the RALB [2]?
A: 3.2 g/dL

Q: And the TBIL [2]?
A: 0.018 mg/dL

Q: And the TG [2]?
A: 43 mg/dL

Q: What about the TP [2] of the same molecule?
A: 5.8 g/dL

Q: What about the gamma-GTP [2] of the same molecule?
A: 1 IU/L

Q: And the TERMINAL_BW [4]?
A: 226.6 g

Q: What about the TERMINAL_BW [5] of the same molecule?
A: 270 g

Q: And the TERMINAL_BW [6]?
A: 302.8 g

Q: And the APTT [7]?
A: 22.8 s

Q: And the Bas [7]?
A: 0%

Q: And the Eos [7]?
A: 1%

Q: And the Fbg [7]?
A: 321.8 mg/dL

Q: What about the Lym [7] of the same molecule?
A: 80.8%

Q: And the MCHC [7]?
A: 34%

Q: And the MCV [7]?
A: 60.4 fL

Q: What about the Mono [7] of the same molecule?
A: 2%

Q: What about the Neu [7] of the same molecule?
A: 15.2%

Q: And the PT [7]?
A: 15.3 s

Q: What about the Plat [7] of the same molecule?
A: 109.2 x10_4/uL

Q: What about the RBC [7] of the same molecule?
A: 705.4 x10_4/ul

Q: What about the Ret [7] of the same molecule?
A: 4.8%

Q: And the WBC [7]?
A: 100.2 x10_2/uL

Q: And the APTT [8]?
A: 24.3 s

Q: And the Bas [8]?
A: 0%

Q: What about the Eos [8] of the same molecule?
A: 0.4%

Q: And the Fbg [8]?
A: 320.6 mg/dL

Q: And the Ht [8]?
A: 44.2%

Q: And the Lym [8]?
A: 80%

Q: And the MCH [8]?
A: 20.1 pg

Q: What about the MCV [8] of the same molecule?
A: 58.9 fL

Q: What about the Mono [8] of the same molecule?
A: 2%

Q: What about the Neu [8] of the same molecule?
A: 16.6%

Q: What about the PT [8] of the same molecule?
A: 15.5 s

Q: What about the Plat [8] of the same molecule?
A: 110.4 x10_4/uL

Q: And the RBC [8]?
A: 750.4 x10_4/ul

Q: And the Ret [8]?
A: 3.5%

Q: And the WBC [8]?
A: 105.7 x10_2/uL

Q: What about the APTT [9] of the same molecule?
A: 23.7 s

Q: And the Bas [9]?
A: 0%

Q: And the Eos [9]?
A: 1%

Q: What about the Fbg [9] of the same molecule?
A: 308.2 mg/dL

Q: What about the Lym [9] of the same molecule?
A: 75.6%

Q: And the MCH [9]?
A: 19.1 pg

Q: What about the MCHC [9] of the same molecule?
A: 34.9%

Q: What about the MCV [9] of the same molecule?
A: 54.8 fL

Q: What about the Mono [9] of the same molecule?
A: 2.8%

Q: And the Neu [9]?
A: 18.8%

Q: What about the PT [9] of the same molecule?
A: 15.9 s

Q: And the Plat [9]?
A: 97.1 x10_4/uL

Q: What about the RBC [9] of the same molecule?
A: 829 x10_4/ul

Q: What about the Ret [9] of the same molecule?
A: 2.1%

Q: What about the WBC [9] of the same molecule?
A: 98.3 x10_2/uL

Q: And the KIDNEY_L [4]?
A: 1 g

Q: What about the KIDNEY_R [4] of the same molecule?
A: 1 g

Q: And the KIDNEY_TOTAL [4]?
A: 2 g

Q: What about the KIDNEY_L [5] of the same molecule?
A: 1.2 g

Q: And the KIDNEY_R [5]?
A: 1.2 g

Q: And the KIDNEY_TOTAL [5]?
A: 2.4 g

Q: And the KIDNEY_L [6]?
A: 1.2 g

Q: And the KIDNEY_R [6]?
A: 1.2 g

Q: What about the KIDNEY_TOTAL [6] of the same molecule?
A: 2.5 g

Q: And the ALP [4]?
A: 1284.2 IU/L

Q: And the ALT [4]?
A: 41.2 IU/L

Q: What about the AST [4] of the same molecule?
A: 74.6 IU/L

Q: And the CRE [4]?
A: 0.1 mg/dL

Q: What about the Ca [4] of the same molecule?
A: 10.4 mg/dL

Q: And the Cl [4]?
A: 106.2 meq/L

Q: What about the DBIL [4] of the same molecule?
A: 0 mg/dL

Q: And the GLC [4]?
A: 182.8 mg/dL

Q: And the IP [4]?
A: 8.5 mg/dL

Q: And the K [4]?
A: 4.2 meq/L

Q: What about the LDH [4] of the same molecule?
A: 175.6 IU/L

Q: What about the RALB [4] of the same molecule?
A: 3 g/dL

Q: What about the TBIL [4] of the same molecule?
A: 0.016 mg/dL

Q: And the TC [4]?
A: 84 mg/dL

Q: What about the TG [4] of the same molecule?
A: 77.4 mg/dL

Q: And the TP [4]?
A: 5.7 g/dL

Q: And the gamma-GTP [4]?
A: 1.6 IU/L

Q: What about the ALP [5] of the same molecule?
A: 1222.6 IU/L

Q: What about the ALT [5] of the same molecule?
A: 46.8 IU/L

Q: And the AST [5]?
A: 80.6 IU/L

Q: And the CRE [5]?
A: 0.2 mg/dL

Q: What about the Ca [5] of the same molecule?
A: 10.6 mg/dL

Q: And the Cl [5]?
A: 105.8 meq/L

Q: What about the DBIL [5] of the same molecule?
A: 0 mg/dL

Q: And the GLC [5]?
A: 184.8 mg/dL

Q: And the IP [5]?
A: 8 mg/dL

Q: What about the K [5] of the same molecule?
A: 4.2 meq/L

Q: And the LDH [5]?
A: 140.2 IU/L

Q: What about the RALB [5] of the same molecule?
A: 3.1 g/dL

Q: And the TBIL [5]?
A: 0.022 mg/dL

Q: And the TC [5]?
A: 80.4 mg/dL

Q: What about the TG [5] of the same molecule?
A: 83.4 mg/dL

Q: And the TP [5]?
A: 5.8 g/dL

Q: What about the gamma-GTP [5] of the same molecule?
A: 2 IU/L

Q: What about the ALP [6] of the same molecule?
A: 1068.4 IU/L

Q: What about the ALT [6] of the same molecule?
A: 53.8 IU/L

Q: What about the AST [6] of the same molecule?
A: 85.4 IU/L

Q: What about the CRE [6] of the same molecule?
A: 0.2 mg/dL

Q: What about the Ca [6] of the same molecule?
A: 10.4 mg/dL

Q: What about the Cl [6] of the same molecule?
A: 106.2 meq/L

Q: And the DBIL [6]?
A: 0 mg/dL

Q: And the GLC [6]?
A: 180.8 mg/dL

Q: What about the IP [6] of the same molecule?
A: 7.8 mg/dL

Q: What about the K [6] of the same molecule?
A: 4.2 meq/L

Q: What about the LDH [6] of the same molecule?
A: 163 IU/L

Q: And the RALB [6]?
A: 3.2 g/dL

Q: What about the TBIL [6] of the same molecule?
A: 0.034 mg/dL

Q: What about the TC [6] of the same molecule?
A: 80.2 mg/dL

Q: What about the TG [6] of the same molecule?
A: 77 mg/dL

Q: And the TP [6]?
A: 6 g/dL

Q: What about the gamma-GTP [6] of the same molecule?
A: 2.6 IU/L
